The structures appear in SMILES notation. Active and inactive are the calls of the source. The rule behind the calls is not given here.

The subject of the data set is CCRIS mutagenicity, Ames/micronucleus/aberration tests. Briefly: CCRIS mutagenicity studies.

With `CCCC(=O)Cl`, the mutagenic call (Test System: AMES SALMONELLA TYPHIMURIUM, Strain/Indicator: TA98, Metabolic Activation: HAMSTER, LIVER, S-9, AROCLOR 1254 (30%), Method: PREINCUBATION) was “inactive; negative”; the mutagenic call (Test System: AMES SALMONELLA TYPHIMURIUM, Strain/Indicator: TA98, Metabolic Activation: NONE, Method: PREINCUBATION) is “inactive; negative”; the mutagenic call (Test System: AMES SALMONELLA TYPHIMURIUM, Strain/Indicator: TA98, Metabolic Activation: RAT, LIVER, S-9, AROCLOR 1254 (30%), Method: PREINCUBATION) was “inactive; negative”; the mutagenic call (Test System: AMES SALMONELLA TYPHIMURIUM, Strain/Indicator: TA100, Metabolic Activation: HAMSTER, LIVER, S-9, AROCLOR 1254 (30%), Method: PREINCUBATION) is “inactive; negative”; the mutagenic call (Test System: AMES SALMONELLA TYPHIMURIUM, Strain/Indicator: TA100, Metabolic Activation: NONE, Method: PREINCUBATION) is “inactive; negative”; the mutagenic call (Test System: AMES SALMONELLA TYPHIMURIUM, Strain/Indicator: TA100, Metabolic Activation: RAT, LIVER, S-9, AROCLOR 1254 (30%), Method: PREINCUBATION) is “inactive; negative”.
On to `CS(=O)(=O)OCCCNCCCOS(C)(=O)=O`, for which the mutagenic call (Test System: AMES SALMONELLA TYPHIMURIUM, Strain/Indicator: TA98, Metabolic Activation: S-9, Method: STANDARD PLATE) was “inactive; negative”; the mutagenic call (Test System: AMES SALMONELLA TYPHIMURIUM, Strain/Indicator: TA100, Metabolic Activation: S-9, Method: STANDARD PLATE) was “inactive; negative”; the mutagenic call (Test System: AMES SALMONELLA TYPHIMURIUM, Strain/Indicator: TA102, Metabolic Activation: S-9, Method: STANDARD PLATE) was “inactive; negative”; the mutagenic call (Test System: AMES SALMONELLA TYPHIMURIUM, Strain/Indicator: TA1537, Metabolic Activation: S-9, Method: STANDARD PLATE) was “active; positive”; the mutagenic call (Test System: E. COLI, Strain/Indicator: WP2 (HCR), Metabolic Activation: S-9, Method: STANDARD PLATE) was “active; positive”.
For the compound `N=C1CCC(=N)c2c1c(O)c1ccccc1c2O`, the mutagenic call (Test System: AMES SALMONELLA TYPHIMURIUM, Strain/Indicator: TA98, Metabolic Activation: NONE, Method: STANDARD PLATE) is “inactive; negative”; the mutagenic call (Test System: AMES SALMONELLA TYPHIMURIUM, Strain/Indicator: TA100, Metabolic Activation: NONE, Method: STANDARD PLATE) is “inactive; negative”; the mutagenic call (Test System: AMES SALMONELLA TYPHIMURIUM, Strain/Indicator: TA100, Metabolic Activation: RAT, LIVER, S-9, AROCLOR 1254, Method: STANDARD PLATE) was “inactive; negative”; the mutagenic call (Test System: AMES SALMONELLA TYPHIMURIUM, Strain/Indicator: TA1535, Metabolic Activation: NONE, Method: STANDARD PLATE) is “inactive; negative”; the mutagenic call (Test System: AMES SALMONELLA TYPHIMURIUM, Strain/Indicator: TA1535, Metabolic Activation: RAT, LIVER, S-9, AROCLOR 1254, Method: STANDARD PLATE) is “inactive; negative”; the mutagenic call (Test System: AMES SALMONELLA TYPHIMURIUM, Strain/Indicator: TA1537, Metabolic Activation: NONE, Method: STANDARD PLATE) was “active; positive”. The mutagenic call runs as follows: (Test System: AMES SALMONELLA TYPHIMURIUM, Strain/Indicator: TA1537, Metabolic Activation: RAT, LIVER, S-9, AROCLOR 1254, Method: STANDARD PLATE) “active; positive”; (Test System: AMES SALMONELLA TYPHIMURIUM, Strain/Indicator: TA1538, Metabolic Activation: NONE, Method: STANDARD PLATE) “inactive; negative”; (Test System: AMES SALMONELLA TYPHIMURIUM, Strain/Indicator: TA1538, Metabolic Activation: RAT, LIVER, S-9, AROCLOR 1254, Method: STANDARD PLATE) “inactive; negative”.

These data come from PubChem BioAssay AID1259407 (Chemical Carcinogenesis Research Information System (CCRIS), 2018).
